This note sets out measurements from patent publication US20080234233A1, “MEDICAMENT FOR TREATMENT OF NEURODEGENERATIVE DISEASES” (INSTITUTE OF MEDICINAL MOLECULAR DESIGN INC., priority 2002, published 2008).

In this assay the test system is NF-κ B activation. Briefly: Inhibitory activity of NF-κB activation, luciferase reporter assay under TNF-α stimulation in HepG2. The following applies: HepG2, TNF-α 40 ng/ml, 4 hours; for inhibition at 1 µg/mL / inhibition at 10 µg/mL: Homo sapiens, read-out: Inhibitory rate against NF-κB activation (%). It counts as cell-based, human. Here is the method:
Measurement of Inhibitory Activity of NF-κB activation
Using a transfection reagent (Effectene; QIAGEN), the human hepatoma cell strain HepG2 was transfected with a plasmid (pNF κ B-Luc Reporter Plasmid; […]) integrated with an oligonucleotide having five tandem copies of NF-κ B binding sequences([…]) on a upstream region of firefly luciferase gene(Luc) according to the QIAGEN's protocol, and the cells were incubated for 6 to 24 hours. After addition of TNF-α (40 ng/ml) in the presence or absence of a test compound, the cells were incubated for 4 hours, and intracellular luciferase activity was measured by using PicaGene LT (TOYO INK MFG Co., Ltd.) and a chemical luminescence measurement apparatus ([…]luor Plus; TECAN). The inhibitory ratio was measured as a ratio relative to the value of the luciferase activity in the absence of the test compound.

As for `O=C(Nc1cc(C(F)(F)F)cc(C(F)(F)F)c1)c1cc(N=Nc2ccc([N+](=O)[O-])cc2)ccc1O` [compound 48], the “Inhibitory rate against NF-κB activation (%)” value (“Inhibitory rate … (%)” below) reads like this: (Drug concentration at 1 μg/mL) 96.2%; (Drug concentration at 10 μg/mL) 98.7%. `O=C(Nc1cc(C(F)(F)F)cc(C(F)(F)F)c1)c1cc(N=Nc2ccc(S(=O)(=O)Nc3ccccn3)cc2)ccc1O` [compound 49]: the “Inhibitory rate … (%)” value (Drug concentration at 1 μg/mL) came to 19.4% and the “Inhibitory rate … (%)” value (Drug concentration at 10 μg/mL) was 89.1%. The matching figures for `Cc1ccc(C(=O)Nc2cc(C(F)(F)F)cc(C(F)(F)F)c2)c(O)c1` [compound 53]: 93.3% and 94.5%. Consider `O=C(Nc1cc(C(F)(F)F)cc(C(F)(F)F)c1)c1cc(Br)c(O)cc1O` [compound 54], for which the “Inhibitory rate … (%)” value (Drug concentration at 10 μg/mL) came to 86.5%.

Regarding `O=C(Nc1cc(C(F)(F)F)cc(C(F)(F)F)c1)c1ccc(O)cc1O` [compound 55], the “Inhibitory rate … (%)” value amounted to 10.8% (Drug concentration at 1 μg/mL) and 88.6% (Drug concentration at 10 μg/mL). For the molecule `O=C(Nc1cc(C(F)(F)F)cc(C(F)(F)F)c1)c1cccc(O)c1O` [compound 57], for the setting “Drug concentration at 10 μg/mL”, the “Inhibitory rate … (%)” value stood at 91.9%. For the molecule `Cc1cccc(C(=O)Nc2cc(C(F)(F)F)cc(C(F)(F)F)c2)c1O` [compound 58, N-[3,5-bis(trifluoromethyl)phenyl]-2-hydroxy-3-methylbenzamide], the inhibition at 1 µg/mL (Drug concentration at 1 μg/mL) worked out at 88.2%. For the same molecule, the inhibition at 10 µg/mL (Drug concentration at 10 μg/mL) came to 95%.

Regarding `COc1cccc(C(=O)Nc2cc(C(F)(F)F)cc(C(F)(F)F)c2)c1O` [compound 59], the “Inhibitory rate … (%)” value is, setting by setting: (Drug concentration at 1 μg/mL) 41.9%; (Drug concentration at 10 μg/mL) 94.7%. For `CC(C)(C)CC(C)(C)c1ccc(O)c(C(=O)Nc2cc(C(F)(F)F)cc(C(F)(F)F)c2)c1` [compound 60] the same measures were 94.0% and 99.1%. For `O=C(Nc1cc(C(F)(F)F)cc(C(F)(F)F)c1)c1c(O)c(Cl)cc(Cl)c1Cl` [compound 61] the same measures were 95.1% and 97.2%.

As to `CC(C)(C)c1cc(C(=O)Nc2cc(C(F)(F)F)cc(C(F)(F)F)c2)c(O)c(C(C)(C)C)c1` [compound 62], the “Inhibitory rate … (%)” value reads like this: (Drug concentration at 1 μg/mL) 37.0%; (Drug concentration at 10 μg/mL) 86.9%. The matching figures for `O=C(Nc1cc(C(F)(F)F)cc(C(F)(F)F)c1)c1cccc(Cl)c1O` [compound 64]: 84.9% and 94.1%. Regarding `COc1ccc(C(=O)Nc2cc(C(F)(F)F)cc(C(F)(F)F)c2)c(O)c1` [compound 65], the “Inhibitory rate … (%)” value (Drug concentration at 1 μg/mL) is reported as 83.3% and the “Inhibitory rate … (%)” value (Drug concentration at 10 μg/mL) worked out at 89.8%.

As for `O=C(Nc1cc(C(F)(F)F)cc(C(F)(F)F)c1)c1cc2ccccc2cc1O` [compound 72], the “Inhibitory rate … (%)” value runs as follows: (Drug concentration at 1 μg/mL) 94.6%; (Drug concentration at 10 μg/mL) 95.0%.

For the molecule `O=C(Nc1cc(C(F)(F)F)cc(C(F)(F)F)c1)c1scc(Br)c1O` [compound 74, 4-Bromo-3-hydroxy-N-[3,5-bis(trifluoromethyl)phenyl]thiophene-2-carboxamide], the inhibition at 1 µg/mL (Drug concentration at 1 μg/mL) is 64%. In addition, the inhibition at 10 µg/mL (Drug concentration at 10 μg/mL) stood at 97.5%. Regarding `O=C(Nc1cc(C(F)(F)F)cc(C(F)(F)F)c1)c1nc2ccccc2nc1O` [compound 80], the “Inhibitory rate … (%)” value (Drug concentration at 1 μg/mL) worked out at 46.3% and the “Inhibitory rate … (%)” value (Drug concentration at 10 μg/mL) worked out at 73.0%. Take `O=C(Nc1cc(C(F)(F)F)ccc1C(F)(F)F)c1cc(Cl)ccc1O` [compound 81, N-[2,5-bis(trifluoromethyl)phenyl]-5-chloro-2-hydroxybenzamide]: the inhibition at 1 µg/mL (Drug concentration at 1 μg/mL) was 95%. Where the note is “Drug concentration at 10 μg/mL”, the inhibition at 10 µg/mL was 96.3%. As to `CC(=O)Oc1ccc(Cl)cc1C(=O)Nc1cc(C(F)(F)F)ccc1C(F)(F)F` [compound 82], the “Inhibitory rate … (%)” value turned out to be 94.0% (Drug concentration at 1 μg/mL) and 96.8% (Drug concentration at 10 μg/mL). For `O=C(Nc1cc(C(F)(F)F)ccc1C(F)(F)F)c1cc(Br)ccc1O` [compound 83] the same measures were 95.7% and 98.3%. Turning to `Cc1ccc(O)c(C(=O)Nc2cc(C(F)(F)F)ccc2C(F)(F)F)c1` [compound 84], the “Inhibitory rate … (%)” value is reported as 92.6% (Drug concentration at 1 μg/mL) and 96.6% (Drug concentration at 10 μg/mL).

On to `O=C(Nc1cc(F)cc(C(F)(F)F)c1)c1cc(Cl)ccc1O` [compound 85], for which the “Inhibitory rate … (%)” value is, setting by setting: (Drug concentration at 1 μg/mL) 94.7%; (Drug concentration at 10 μg/mL) 98.9%. The matching figures for `O=C(Nc1cc(Br)cc(C(F)(F)F)c1)c1cc(Br)ccc1O` [compound 86]: 96.7% and 98.7%. For `O=C(Nc1cc(C(F)(F)F)ccc1F)c1cc(Cl)ccc1O` [compound 87] the same measures were 93.1% and 95.9%.

For the molecule `O=C(Nc1cc(C(F)(F)F)ccc1Cl)c1cc(Cl)ccc1O` [compound 88, 5-chloro-N-[2-chloro-5-(trifluoromethyl)phenyl]-2-hydroxybenzamide], for the setting “Drug concentration at 1 μg/mL”, the inhibition at 1 µg/mL amounted to 94.8%. For the same molecule, under “Drug concentration at 10 μg/mL”, the inhibition at 10 µg/mL amounted to 97.1%. Turning to `CC(=O)Oc1ccc(Cl)cc1C(=O)Nc1cc(C(F)(F)F)ccc1Cl` [compound 89], the “Inhibitory rate … (%)” value runs as follows: (Drug concentration at 1 μg/mL) 96.7%; (Drug concentration at 10 μg/mL) 97.4%. For `O=C(Nc1cc(C(F)(F)F)ccc1Cl)c1cc(Br)ccc1O` [compound 90] the same measures were 88.9% and 94.1%. For `O=C(Nc1cc(C(F)(F)F)ccc1[N+](=O)[O-])c1cc(Cl)ccc1O` [compound 91] the same measures were 86.3% and 96.7%. The matching figures for `Cc1ccc(C(F)(F)F)cc1NC(=O)c1cc(Cl)ccc1O` [compound 92]: 93.8% and 97.9%. Regarding `COc1cc(NC(=O)c2cc(Br)ccc2O)cc(C(F)(F)F)c1` [compound 93], the “Inhibitory rate … (%)” value (Drug concentration at 1 μg/mL) came to 84.5% and the “Inhibitory rate … (%)” value (Drug concentration at 10 μg/mL) turned out to be 97.2%. For `COc1ccc(C(F)(F)F)cc1NC(=O)c1cc(Br)ccc1O` [compound 94] the same measures were 76.6% and 93.4%. The matching figures for `COc1ccc(C(F)(F)F)cc1NC(=O)c1cc(Cl)ccc1O` [compound 95]: 91.8% and 98.5%. For the molecule `CSc1ccc(C(F)(F)F)cc1NC(=O)c1cc(Cl)ccc1O` [compound 96], the “Inhibitory rate … (%)” value (Drug concentration at 1 μg/mL) is on record as 94.6% and the “Inhibitory rate … (%)” value (Drug concentration at 10 μg/mL) was found to be 99.1%. For `O=C(Nc1cc(C(F)(F)F)ccc1N1CCCC1)c1cc(Br)ccc1O` [compound 97] the same measures were 95.8% and 97.8%. For `O=C(Nc1cc(C(F)(F)F)ccc1Cl)c1cc([N+](=O)[O-])ccc1O` [compound 99] the same measures were 54.3% and 98.0%. The matching figures for `Cc1ccc(O)c(C(=O)Nc2cc(C(F)(F)F)ccc2Cl)c1` [compound 100]: 85.6% and 95.1%. Take `Cc1ccc(O)c(C(=O)Nc2cc(C(F)(F)F)ccc2C)c1` [compound 102]: the “Inhibitory rate … (%)” value is recorded as 89.3% (Drug concentration at 1 μg/mL) and 98.3% (Drug concentration at 10 μg/mL). The matching figures for `O=C(Nc1cc(Br)cc(C(F)(F)F)c1)c1cc(Cl)ccc1O` [compound 104]: 97.2% and 99.2%. For the molecule `COc1cc(NC(=O)c2cc(Cl)ccc2O)cc(C(F)(F)F)c1` [compound 105], the “Inhibitory rate … (%)” value is recorded as 94.6% (Drug concentration at 1 μg/mL) and 97.5% (Drug concentration at 10 μg/mL). The matching figures for `O=C(Nc1cc(C(F)(F)F)ccc1N1CCOCC1)c1cc(Cl)ccc1O` [compound 106]: 92.3% and 92.1%. The matching figures for `O=C(Nc1cc(C(F)(F)F)ccc1Br)c1cc(Cl)ccc1O` [compound 107]: 94.9% and 96.2%. For the molecule `COC(=O)c1cc(NC(=O)c2cc(Cl)ccc2O)cc(C(F)(F)F)c1` [compound 108, 5-chloro-2-hydroxy-N-[3-methoxycarbonyl-5-(trifluoromethyl)phenyl]benzamide], the inhibition at 1 µg/mL (Drug concentration at 1 μg/mL) was found to be 41.5%. Further, under “Drug concentration at 10 μg/mL”, the inhibition at 10 µg/mL came to 88.4%. For the molecule `O=C(Nc1cc(C(F)(F)F)ccc1Oc1ccc2ccccc2c1)c1cc(Cl)ccc1O` [compound 110], the “Inhibitory rate … (%)” value runs as follows: (Drug concentration at 1 μg/mL) 96.5%; (Drug concentration at 10 μg/mL) 98.7%.

Regarding `O=C(Nc1cc(C(F)(F)F)ccc1Oc1ccc(Cl)cc1Cl)c1cc(Cl)ccc1O` [compound 111], the “Inhibitory rate … (%)” value by setting is: (Drug concentration at 1 μg/mL) 96.5%; (Drug concentration at 10 μg/mL) 99.7%.
